Laboratory results reported in patent publication US20240342080A1, “COMPOSITIONS AND METHODS FOR INHIBITING HUMAN BLOOD PROTEIN VITRONECTIN” (Sanford Burnham Prebys Medical Discovery Institute, priority 2021, published 2024).

Assays:
[1] = system: HAP deposited on spherules; test: In vitro drusen model: production of HAP-protein-lipid proto-spherules (fluorescence emission reflects HAP deposited); type: biochemical
Excerpt: (§1) An in vitro assay was designed to produce proto-spherule like those found in AMD drusen. HAP was detected with a specific fluorescent dye. This assay was used to discover inhibitors.
(§2) In Vitro Drusen Model: Production of HAP-Protein-Lipid Proto-Spherules
(§3) In this model, fluorescence emission reflected the amount of HAP deposited on spherules. The results are show in FIG. 1. […] Pyrophosphate (PPi) is a mineralization inhibitor and serves as negative control. There are many HAP-binding proteins but Vn is unique: it plays an active role in HAP mineralization.

[2] = molecular target: T1, human blood protein vitronectin (Vn) (Homo sapiens, UniProt P04004); test: In vitro drusen model used to test Vn antibodies as inhibitors of Vn-dependent HAP deposition; type: biochemical; details: FIG. 2
T1 construct: made in house; host or cells: Escherichia coli
T1 sequence (P04004 20-478): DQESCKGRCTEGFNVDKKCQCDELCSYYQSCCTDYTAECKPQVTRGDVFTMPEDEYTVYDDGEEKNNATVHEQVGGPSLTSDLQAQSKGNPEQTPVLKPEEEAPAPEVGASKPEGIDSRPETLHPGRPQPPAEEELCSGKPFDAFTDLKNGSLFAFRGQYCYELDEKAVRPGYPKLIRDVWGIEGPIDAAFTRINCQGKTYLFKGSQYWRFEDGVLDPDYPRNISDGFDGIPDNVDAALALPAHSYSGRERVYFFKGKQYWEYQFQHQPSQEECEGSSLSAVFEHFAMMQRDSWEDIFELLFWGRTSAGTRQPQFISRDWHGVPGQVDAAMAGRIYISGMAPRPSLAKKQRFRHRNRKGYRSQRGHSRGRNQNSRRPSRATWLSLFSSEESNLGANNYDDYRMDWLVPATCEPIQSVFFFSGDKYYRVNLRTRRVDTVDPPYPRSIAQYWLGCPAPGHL
Experimental: as §1
Vn was prepared from Escherichia coli. All buffer solutions were prepared with Milli-Q deionized water. For calcium-free preparations, the protein was folded by dropwise dilution from buffer T1 (20 mM Tris HCl pH 8, 6 M guanidine, 10 mM dithiothreitol) into buffer T2 (20 mM Tris HCl pH 8, 500 mM ArgCl, 300 mM NaCl, 5 mM β-mercaptoethanol, 1 mM hydroxyethyldisulfide), followed by dialysis into buffer MI (20 mM MES, pH 6.5, 300 mM NaCl) and size exclusion chromatography (Superdex 200 10/300 GL, GE Healthcare). Calcium-containing samples were prepared by supplementing buffer MI with CaCl2).
as §2, §3
This assay was used to test Vn antibodies (need details on Abc, Abm and Abn and IGF II) as potential inhibitors.

Substance: Amyloid-β (Aβ): Amyloid-β, comparison protein in the in vitro drusen model [reference compound]
- effect on HAP deposition / mineralization on spherules (fluorescence emission) ([1]; FIG. 1): no significant effect on HAP mineralization

Substance: Vitronectin: human blood protein vitronectin, prepared from Escherichia coli
- effect on HAP deposition (fluorescence emission) [2]: promotes HAP deposition in a dose- and time-dependent manner
- effect on HAP deposition / mineralization on spherules (fluorescence emission) ([1]; FIG. 1): increases HAP deposition on spherules in a dose-dependent and time-dependent manner
- effect on HAP deposition / mineralization on spherules (fluorescence emission) ([1]; FIG. 1, listed as Vn): promotes HAP formation
